Test results as given in US5501957A, “Method for measuring glycosyltransferase activity” (priority 1994, dated 1996).
pIC50: −log10 of the molar value. Values joined by “and” are separate entries in the source; they are usually repeats but may differ in a detail not shown here. Equal values may be shown once. “Also recorded” adds a separate entry of the source. Read-outs that look alike come from different tables or passages of the source.

Experiments:
CHO cells [1] = experiment: Proliferation (doubling time) of CHO cells in the presence of differentiation agents; assay type: cell-based, Chinese hamster
core 2 GlcNAc-T [2] = system: core 2 GlcNAc-T
core 2 GlcNAc-T [3] = target: T1, core 2 GlcNAc-T (Cricetulus griseus, UniProt A0A9J7GWB2); experiment: Kinetic analysis of core 2 GlcNAc-T activity in CHO cell lysates; assay type: biochemical, Chinese hamster; details: butyrate+cholera toxin-treated versus untreated CHO cells
T1 construct: The lysates were adjusted to 8-12 μg/μl protein with lysis solution and used as the source of transferases; endogenous in cells; host or cells: CHO cells (untreated or treated with differentiating agents), detergent lysate; in A6 freeze-thawed cells, pelleted membranes
T1 sequence (A0A9J7GWB2 1-428): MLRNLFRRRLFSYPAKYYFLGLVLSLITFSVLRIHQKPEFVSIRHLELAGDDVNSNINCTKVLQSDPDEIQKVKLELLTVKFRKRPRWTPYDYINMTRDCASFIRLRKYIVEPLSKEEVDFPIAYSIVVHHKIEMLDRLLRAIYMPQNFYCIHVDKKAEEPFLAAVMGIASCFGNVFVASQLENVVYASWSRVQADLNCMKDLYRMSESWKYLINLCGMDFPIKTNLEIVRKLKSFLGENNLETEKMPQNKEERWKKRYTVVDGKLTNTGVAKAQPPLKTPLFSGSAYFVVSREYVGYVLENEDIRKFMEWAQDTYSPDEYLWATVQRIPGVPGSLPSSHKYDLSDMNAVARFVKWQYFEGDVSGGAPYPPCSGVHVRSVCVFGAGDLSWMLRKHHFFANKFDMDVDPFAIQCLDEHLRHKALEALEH

core 2 GlcNAc-T [4] = experiment: Substrate Km for core 2 GlcNAc-T found in CHO and MDAY-D2 cell lysates; assay type: biochemical, Chinese hamster; murine
core 2 GlcNAc-T [5] = details: CHO and MDAY-D2 cell lysates; Yousefi et al (1991); cited from earlier work
CHO cells [6] = experiment: Cell morphology of CHO cells; assay type: cell-based, Chinese hamster
cAMP = assay type: cell-based, Chinese hamster
core 2 GlcNAc-T [7] = assay type: biochemical, Chinese hamster
in vitro = details: hamster, cho cells
bovine β1-4Gal-T = experiment: Kinetics of the β1-4Gal-T reaction; assay type: biochemical; details: 1 mU Gal-T, 5 min at 30° C.
[8] = system: Ca^++ -dependent protein kinases; details: cell-free assays; Hidaka et al, 1984; cited from earlier work
[9] = system: cAMP-dependent protein kinases; details: cell-free assays; Hidaka et al, 1984; cited from earlier work
[10] = 2 hour incubation, lysates from control or butyrate+cholera toxin-treated cells
[11] = 1 μM actinomycin D, 5 μg/ml cycloheximide, 50 μM kinase inhibitors

CC1=C(/C=C/C(C)=C/C=C/C(C)=C/C(=O)O)C(C)(C)CCC1 [RA, all-trans-retinoic acid]
Doubling Time (CHO cells [1]): 13 h
effect on core 2 GlcNAc-T activity in CHO cells (in words) (core 2 GlcNAc-T [2]): had no effect on activity
effect on core 2 GlcNAc-T activity in CHO cells (in words) (core 2 GlcNAc-T [2]; listed as retinoic acid): Neither cholera toxin alone, retinoic acid, DMSO nor PMA had any effect on core 2 GlcNAc-T activity

CC(=O)N[C@H]1[C@@H](Oc2ccc([N+](=O)[O-])cc2)O[C@H](CO)[C@H](O)[C@@H]1O[C@@H]1O[C@H](CO)[C@H](O)[C@H](O)[C@H]1O [Galβ1-3GalNAcα-pNp]
change in Km for the synthetic acceptor (in words) (core 2 GlcNAc-T [3]): no changes in Km
fold by which substrate Km for β1-4Gal-T is lower than for core 2 GlcNAc-T (core 2 GlcNAc-T [4]): 5 fold
Km (core 2 GlcNAc-T [5]): 300 µM

cholera toxin
effect on cell proliferation (in words) (CHO cells [1]): reductions in cell growth rates; also recorded: slowed cell proliferation
changes in cell morphology (in words) (CHO cells [6]): induced changes in cell morphology
effect on intracellular/cytosolic cAMP levels (in words) (cAMP): enhanced both cytosolic cAMP concentrations and core 2 GlcNAc-T activity compared to butyrate-treatment alone
additional increase in core 2 GlcNAc-T activity in butyrate-treated cells (core 2 GlcNAc-T [2]): 2 fold
effect on core 2 GlcNAc-T activity of butyrate-treated cells (in words) (core 2 GlcNAc-T [2]): enhanced both cytosolic cAMP concentrations and core 2 GlcNAc-T activity compared to butyrate-treatment alone
enhancement of core 2 GlcNAc-T activity in butyrate-treated cells (core 2 GlcNAc-T [2]): 80%

CCCC(=O)[O-].[Na+] [butyrate, sodium butyrate]
Doubling Time (CHO cells [1]): 25 to 27 h and 24 h
effect on cell proliferation (in words) (CHO cells [1]): reductions in cell growth rates; also recorded: slowed cell proliferation
changes in cell morphology (in words) (CHO cells [6]): induced changes in cell morphology
delay of core 2 GlcNAc-T peaks after peaks in cytosolic cAMP (cAMP): 8 to 12 h
effect on intracellular/cytosolic cAMP levels (in words) (cAMP): butyrate treatment increases intracellular cAMP levels; also recorded: elevated cytosolic cAMP levels
time by which cAMP elevation preceded induction of core 2 GlcNAc-T activity (cAMP): approximately 8 h
time of first peak of cAMP (cAMP): 12 h
time of second peak of cAMP (cAMP): 72 h
core 2 GlcNAc-T activity, kinase + (core 2 GlcNAc-T [7]): 264.9
core 2 GlcNAc-T activity, kinase - (core 2 GlcNAc-T [7]): 267.4
effect on core 2 GlcNAc-T activity in CHO cells (in words) (core 2 GlcNAc-T [2]): only butyrate induced core 2 GlcNAc-T activity
second peak of core 2 GlcNAc-T activity, higher than the 24 hours peak (core 2 GlcNAc-T [2]): approximately 45%
time of first peak (maximum) of core 2 GlcNAc-T activity (core 2 GlcNAc-T [2]): 24 h
time of second peak of core 2 GlcNAc-T activity (core 2 GlcNAc-T [2]): 84 h
core 2 GlcNAc-T activity greater than controls (core 2 GlcNAc-T [2]; cho cells, 2000 µM): 10-20 times
fold increase in core 2 GlcNAc-T activity (core 2 GlcNAc-T [2]; cho cells, 24 h): 16 fold
increase in β1-3 Gal-T activity (β1-3Gal-T; cho cells, 24 h, 2000 µM): approximately 2 fold
increase in β1-3Gal-T activity (β1-3Gal-T; cho cells, 24 h, 2000 µM): 2-3 times
viability at 2000 µM (in vitro): 90 to 95%

CCCCCCCCCCCCCC(=O)O[C@@H]1[C@@H](C)[C@@]2(O)[C@@H](C=C(CO)C[C@]3(O)C(=O)C(C)=C[C@@H]23)[C@@H]2C(C)(C)[C@]12OC(C)=O [TPA, phorbol 12-myristate 13-acetate]
Doubling Time (CHO cells [1]): 13 h
effect on core 2 GlcNAc-T activity in CHO cells (in words) (core 2 GlcNAc-T [2]; listed as PMA): Neither cholera toxin alone, retinoic acid, DMSO nor PMA had any effect on core 2 GlcNAc-T activity

COC(=O)CCCCCCCCO[C@@H]1O[C@H](CO[C@H]2O[C@H](CO)[C@@H](O)[C@H](O)[C@@H]2O[C@@H]2O[C@H](CO)[C@@H](O)[C@H](O)[C@H]2NC(C)=O)[C@@H](O)[C@H](O)[C@@H]1O [GlcNAcβ1-2Manα1-6Manβ--O--(CH2)8 --COOCH3]
Km (bovine β1-4Gal-T): 45 µM

CC1CNCCN1S(=O)(=O)c1cccc2cnccc12 (centres unmarked) [H-7]
effect on induction of core 2 GlcNAc-T activity by butyrate (in words) (core 2 GlcNAc-T [2]; [11]): blocked induction of core 2 GlcNAc-T activity
pIC50 [8]: 5.00 to 6.00

CCCC(=O)Nc1ncnc2c1ncn2[C@@H]1O[C@@H]2COP(=O)(O)O[C@H]2[C@H]1OC(=O)CCC [dibutyryl cAMP]
effect on core 2 GlcNAc-T activity in CHO cells (in words) (core 2 GlcNAc-T [2]): failed to induce enzyme activity

CNCCNS(=O)(=O)c1cccc2cnccc12 [H-8]
effect on induction of core 2 GlcNAc-T activity by butyrate (in words) (core 2 GlcNAc-T [2]; [11]): blocked induction of core 2 GlcNAc-T activity
pIC50 [9]: 5.00 to 6.00

C[S+](C)[O-] [DMSO, dimethylsulfoxide]
Doubling Time (CHO cells [1]): 25 to 27 h
effect on cell proliferation (in words) (CHO cells [1]): reductions in cell growth rates
Doubling Time (CHO cells [1]; average slopes of growth curves over 72 hours): 25 h
effect on cell proliferation (in words) (CHO cells [1]; listed as dimethylsulfoxide): slowed cell proliferation
changes in cell morphology (in words) (CHO cells [6]): changes in cell morphology
changes in cell morphology (in words) (CHO cells [6]; listed as dimethylsulfoxide): induced changes in cell morphology
Core 2 GlcNAc-T activity (core 2 GlcNAc-T [2]; 24 h treatment): 9.6 pmol/mg/h
Core 2 GlcNAc-T activity (core 2 GlcNAc-T [2]; 48 h treatment): 11.2 pmol/mg/h
Core 2 GlcNAc-T activity (core 2 GlcNAc-T [2]; 72 h treatment): 9.5 pmol/mg/h
B-1 Gal-T activity (β1-3Gal-T; 24 h treatment): 9.1 nmoles/m/h
B-1 Gal-T activity (β1-3Gal-T; 48 h treatment): 8.1 nmoles/m/h
B-1 Gal-T activity (β1-3Gal-T; 72 h treatment): 5.6 nmoles/m/h

Nc1ncnc2c1nc(Br)n2[C@@H]1O[C@@H]2COP(=O)(O)O[C@H]2[C@H]1O [8-bromo-cAMP]
effect on core 2 GlcNAc-T activity in CHO cells (in words) (core 2 GlcNAc-T [2]): failed to induce enzyme activity

NC(N)=NCCNS(=O)(=O)c1cccc2cnccc12 [H-1004]
effect on induction of core 2 GlcNAc-T activity by butyrate (in words) (core 2 GlcNAc-T [2]): had no effect

CC(=O)N[C@H]1[C@@H](OP(=O)(O)OP(=O)(O)OC[C@H]2O[C@@H](n3ccc(=O)[nH]c3=O)[C@H](O)[C@@H]2O)O[C@H](CO)[C@@H](O)[C@@H]1O [UDP-GlcNAc]
fold by which substrate Km for β1-4Gal-T is lower than for core 2 GlcNAc-T (core 2 GlcNAc-T [4]): 7 fold
UDP-GlcNAc remaining intact [10]: 93-95%
Km (core 2 GlcNAc-T [5]): 500 µM
